For assay [1], the target named is GDP-bound protein (aa 1-169), containing both G12C and C118A amino acid substitutions (Homo sapiens, UniProt P01116, C118A/G12C). As to the kind of experiment: Coupled Nucleotide Exchange Assay (SOS-mediated nucleotide exchange, AlphaScreen). The note with it: 2 hours compound pre-incubation. It counts as biochemical. In outline:
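AlphaScreen signal after SOS (aa 564-1049)/GTP-driven exchange (1 h) on GDP-loaded His-[…] G12C/C118A (aa 1-169), following a 2 h compound pre-incubation in HEPES pH 7.4 buffer with 10 mM MgCl2 and 0.01% Triton X-100. IC50s fitted by 4-parameter logistic model.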
For orientation: Bead proximity is the source of the signal in Alpha formats.

Assay [2] concerns Phosphorylation of ERK½ in MIA PaCa-2 cells. As to the kind of experiment: Phospho-ERK½ MSD Assay in MIA PaCa-2 cells. Type of assay: cell-based. To be noted: 4 hours compound treatment, 10 ng/mL EGF for 10 min, read-out: p-ERK IC50 (MIA PaCa-2). In outline: (§1)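 MIA PaCa-2 or A549 cells (25,000/well, RPMI with 10% FBS) exposed to compound titration for 4 h at 37 °C, then stimulated with 10 ng/mL EGF for 10 min and lysed in RIPA. Phospho-ERK1/2 quantified by MSD whole-cell lysate immunoassay; IC50 from 4-parameter logistic fit.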

The test system of assay [3] is Phosphorylation of ERK½ in A549 cells. As to the kind of experiment: Phospho-ERK½ MSD Assay in A549 cells. It counts as cell-based. To be noted: 4 hours compound treatment, 10 ng/mL EGF for 10 min, read-out: p-ERK IC50 (A549). In outline: as §1
The mark [4] stands for this setting: Homo sapiens, MIA PaCa-2, MIA PaCa-2 cells.

Usually IC50 stands for the concentration at which inhibition is half-maximal.

Where two headings read alike, the source gives them in different places.

GDP-bound protein (aa 1-169), containing both G12C and C118A amino acid substitutions, sequence (P01116 1-169 isoform P01116-2 G12C/C118A): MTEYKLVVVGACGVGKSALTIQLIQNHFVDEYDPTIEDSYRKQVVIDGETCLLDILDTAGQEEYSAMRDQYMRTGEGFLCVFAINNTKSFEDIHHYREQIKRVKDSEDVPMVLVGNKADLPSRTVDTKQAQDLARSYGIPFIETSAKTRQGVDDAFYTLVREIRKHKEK

Turning to `C=CC(=O)NC1CN(c2snc3c(F)c(-c4cc(O)cc5ccccc45)c(Cl)cc23)C1` [Example 4-6, N-(1-(5-chloro-7-fluoro-6-(3-hydroxy-1-naphthalenyl)-2,1-benzothiazol-3-yl)-3-azetidinyl)-2-propenamide], the “Coupled exchange IC50” value in assay [1] was determined as 630 nM. Further, the IC50 was 10300 nM in assay [2] (setting [4]) and greater than 100000 nM in assay [3] (Homo sapiens, A549, A549 cells).

As to `C=CC(=O)N(C)C1CN(c2snc3c(F)c(-c4cc(O)cc5ccccc45)c(Cl)cc23)C1` [Example 5-1, N-(1-(5-Chloro-7-fluoro-6-(3-hydroxy-1-naphthalenyl)-2,1-benzothiazol-3-yl)-3-azetidinyl)-N-methyl-2-propenamide], the “Coupled exchange IC50” value in assay [1] was 875 nM. For the same compound, the IC50 in assay [2] (setting [4]) is 2860 nM; in assay [3] (Homo sapiens, A549, A549 cells), greater than 100000 nM.

Turning to `C=CC(=O)N1CCN(c2snc3c(F)c(-c4cc(O)cc5ccccc45)c(Cl)cc23)C[C@@H]1C` [Example 5-4, 1-((2S)-4-(5-chloro-7-fluoro-6-(3-hydroxy-1-naphthalenyl)-2,1-benzothiazol-3-yl)-2-methyl-1-piperazinyl)-2-propen-1-one], in assay [1], the “Coupled exchange IC50” value was found to be 610 nM. Moreover, the IC50 in assay [2] (setting [4]) was 3250 nM; in assay [3] (Homo sapiens, A549, A549 cells), greater than 100000 nM.

`C=CC(=O)N1CC[C@@H]2[C@H]1CN2c1snc2c(F)c(-c3cc(O)cc4ccccc34)c(Cl)cc12` [Example 5-5, 1-((1R,5R)-6-(5-chloro-7-fluoro-6-(3-hydroxy-1-naphthalenyl)-2,1-benzothiazol-3-yl)-2,6-diazabicyclo[3.2.0]heptan-2-yl)-2-propen-1-one]: in assay [1], the “Coupled exchange IC50” value worked out at 341 nM. Besides, the concentration for half-maximal inhibition (IC50) in assay [2] (setting [4]) was 2530 nM; in assay [3] (Homo sapiens, A549, A549 cells) it was greater than 100000 nM.

Turning to `C=CC(=O)N1CC[C@H]2[C@@H]1CN2c1snc2c(F)c(-c3cc(O)cc4ccccc34)c(Cl)cc12` [Example 5-6, 1-((1S,5S)-6-(5-chloro-7-fluoro-6-(3-hydroxy-1-naphthalenyl)-2,1-benzothiazol-3-yl)-2,6-diazabicyclo[3.2.0]heptan-2-yl)-2-propen-1-one], in assay [1], the “Coupled exchange IC50” value turned out to be 883 nM. Further, the IC50 was 5900 nM in assay [2] (setting [4]) and greater than 100000 nM in assay [3] (Homo sapiens, A549, A549 cells).

Turning to `C=CC(=O)N1CCN(c2snc3c(F)c(-c4cc(O)cc5ccccc45)c(Cl)cc23)C[C@H]1C` [Example 5-7, 1-((2R)-4-(5-chloro-7-fluoro-6-(3-hydroxy-1-naphthalenyl)-2,1-benzothiazol-3-yl)-2-methyl-1-piperazinyl)-2-propen-1-one], the “Coupled exchange IC50” value in assay [1] was 815 nM. In addition, the IC50 was 3790 nM in assay [2] (setting [4]) and greater than 100000 nM in assay [3] (Homo sapiens, A549, A549 cells).

Take `C=CC(=O)N1CC(N(C)c2snc3c(F)c(-c4cc(O)cc5ccccc45)c(Cl)cc23)C1` [Example 5-9, 1-(3-((5-Chloro-7-fluoro-6-(3-hydroxynaphthalen-1-yl)benzo[c]isothiazol-3-yl)(methyl)amino)azetidin-1-yl)prop-2-en-1-one]: in assay [1], the “Coupled exchange IC50” value was 139 nM. Moreover, the IC50 in assay [2] (setting [4]) was 822 nM; in assay [3] (Homo sapiens, A549, A549 cells) it was greater than 100000 nM.

For the compound `C=CC(=O)N1CCN(c2snc3c(F)c(-c4nc(N)ccc4Cl)c(Cl)cc23)CC1` [Example 6-1, 1-(4-(6-(6-Amino-3-chloro-2-pyridinyl)-5-chloro-7-fluoro-2,1-benzothiazol-3-yl)-1-piperazinyl)-2-propen-1-one], the “Coupled exchange IC50” value in assay [1] came out at 537 nM. The IC50 in assay [2] (setting [4]) amounted to 1300 nM; in assay [3] (Homo sapiens, A549, A549 cells), 3700 nM.

Take `C=CC(=O)N1CCN(c2nc(=O)n(-c3ccccc3C(C)C)c3cc(-c4c(O)cccc4F)c(Cl)cc23)CC1` [Example 8-1, 6-Chloro-7-(2-fluoro-6-hydroxyphenyl)-1-(2-(2-propanyl)phenyl)-4-(4-(2-propenoyl)-1-piperazanyl)-2(1H)-quinazolinone]: the “Coupled exchange IC50” value in assay [1] is 542 nM. Besides, the half-maximal inhibitory concentration (IC50) was found to be 211 nM in assay [2] (MIA PaCa-2 cells) and 62300 nM in assay [3] (Homo sapiens, A549, A549 cells).

For the compound `C=CC(=O)N1CCN(c2nc(=O)n(-c3ccccc3C(C)C)c3cc(-c4c(O)cccc4F)c(Cl)cc23)[C@@H](C)C1` [Example 8-3, 6-chloro-7-(2-fluoro-6-hydroxyphenyl)-4-((2S)-2-methyl-4-(2-propenoyl)-1-piperazinyl)-1-(2-(2-propartyl)phenyl)-2(1H)-quinazolinone], the “Coupled exchange IC50” value in assay [1] was 783 nM. Besides, the IC50 in assay [2] (setting [4]) is 61 nM; in assay [3] (Homo sapiens, A549, A549 cells) it was greater than 100000 nM.

For `C=CC(=O)N1CCN(c2nc(=O)n(-c3c(CC)cccc3CC)c3nc(-c4c(O)cccc4F)c(Cl)cc23)[C@@H](C)C1` [Example 8-4, 6-chloro-1-(2,6-diethylphenyl)-7-(2-fluoro-6-hydroxyphenyl)-4-((2S)-2-methyl-4-(2 propenoyl)-1-piperazinyl)pyrido[2,3-d]pyrimidin-2(1H)-one], in assay [1], the “Coupled exchange IC50” value worked out at 95 nM. In addition, the IC50 in assay [2] (setting [4]) is 17 nM; in assay [3] (Homo sapiens, A549, A549 cells) it was greater than 33300 nM.

Consider `C=CC(=O)N1CCN(c2nc(=O)n(-c3cnccc3C3CC3)c3cc(-c4c(O)cccc4F)c(Cl)cc23)CC1` [Example 8-5, 6-chloro-1-(4-cyclopropyl-3-pyridinyl)-7-(2 fluoro-6-hydroxyphenyl)-4-(4-(2-propenoyl)-1-piperazinyl)-2(1H)-quinazolinone], for which the “Coupled exchange IC50” value in assay [1] was 400 nM. In addition, the IC50 in assay [2] (setting [4]) is 2410 nM; in assay [3] (Homo sapiens, A549, A549 cells), greater than 100000 nM.

For the compound `C=CC(=O)N1CCN(c2nc(=O)n(-c3ccccc3C(C)C)c3nc(-c4c(O)cccc4F)c(Cl)cc23)[C@@H](C)C1` [Example 8-6, 6-chloro-7-(2-fluoro-6-hydroxyphenyl)-4-((2S)-2-methyl-4-(2-propenoyl)-1-piperazinyl)-1-(2-(2-propanyl)phenyl)pyrido[2,3-d]pyrimidin-2(1H)-one], the “Coupled exchange IC50” value in assay [1] was 100 nM. For the same compound, the IC50 in assay [2] (MIA PaCa-2 cells) is 12 nM; in assay [3] (A549 cells), 69900 nM.

With `C=CC(=O)N1CCN(c2nc(=O)n(-c3ccccc3C(C)C)c3cc(-c4cc(O)cc(Cl)c4Cl)c(Cl)cc23)[C@@H](C)C1` [Example 9-1, 6-Chloro-7-(2,3-dichloro-5-hydroxyphenyl)-4-((2S)-2-methyl-4-(2-propenoyl)-1-piperazinyl)-1-(2-(2-propanyl)phenyl)-2(1H)-quinazolinone], the “Coupled exchange IC50” value in assay [1] was 155 nM. Moreover, the IC50 turned out to be 52 nM in assay [2] (setting [4]) and 57400 nM in assay [3] (Homo sapiens, A549, A549 cells).

In the case of `C=CC(=O)N1CCN(c2nc(=O)n(-c3ccccc3C(C)C)c3cc(-c4cc(N)ccc4Cl)c(Cl)cc23)[C@@H](C)C1` [Example 9-3, 7-(5-amino-2-chlorophenyl)-6-chloro-4-((2S)-2-methyl-4-(2-propenoyl)-1-piperazinyl)-1-(2-(2-propanyl)phenyl)-2(1H)-quinazolinone], in assay [1], the “Coupled exchange IC50” value came to 113 nM. Also, the IC50 in assay [2] (setting [4]) stood at 35 nM; in assay [3] (Homo sapiens, A549, A549 cells), 66100 nM.

As for `C=CC(=O)N1CCN(c2nc(=O)n(-c3cccc(C#N)c3)c3cc(-c4c(O)cccc4F)c(Cl)cc23)CC1` [Example 9-5, 3-(6-chloro-7-(2-fluoro-6-hydroxyphenyl)-2-oxo-4-(4-(2-propenoyl)-1-piperazinyl)-1(2H)-quinazolinyl)benzonitrile], the “Coupled exchange IC50” value in assay [1] was determined as 1330 nM. In addition, the IC50 in assay [2] (setting [4]) is 3920 nM; in assay [3] (Homo sapiens, A549, A549 cells), greater than 100000 nM.

For the compound `C=CC(=O)N1CCN(c2nc(=O)n(-c3ccncc3C3CC3)c3cc(-c4c(O)cccc4F)c(Cl)cc23)CC1` [Example 9-6, 6-chloro-1-(3-cyclopropyl-4-pyridinyl)-7-(2-fluoro-6-hydroxyphenyl)-4-(4-(2-propenoyl)-1-piperazinyl)-2(1H)-quinazolinone], the “Coupled exchange IC50” value in assay [1] was found to be 237 nM. Moreover, the IC50 in assay [2] (setting [4]) is 3510 nM; in assay [3] (Homo sapiens, A549, A549 cells) it was greater than 100000 nM.

In the case of `C=CC(=O)N1CCN(c2nc(=O)n(-c3ccncc3C3CC3)c3cc(-c4c(C)ccc5[nH]ncc45)c(Cl)cc23)[C@@H](C)C1` [Example 9-9, 6-chloro-1-(3-cyclopropyl-4-pyridinyl)-7-(5-methyl-1H-indazol-4-yl)-4-((2S)-2-methyl-4-(2-propenoyl)-1-piperazinyl)-2(1H)-quinazolinone], the “Coupled exchange IC50” value in assay [1] was found to be 147 nM. Further, the IC50 in assay [2] (setting [4]) is 136 nM; in assay [3] (Homo sapiens, A549, A549 cells), 65600 nM.

Consider `C=CC(=O)N1CCN(c2nc(=O)n(-c3ccccc3C(C)C)c3cc(-c4cccc(Cl)c4Cl)c(Cl)cc23)[C@@H](C)C1` [Example 9-10, 6-chloro-7-(2,3-dichlorophenyl)-4-((2S)-2-methyl-4-(2-propenoyl)-1-piperazinyl)-1-(2-(2-propanyl)phenyl)-2(1H)-quinazolinone], for which the “Coupled exchange IC50” value in assay [1] came to 101 nM. Further, the IC50 in assay [2] (setting [4]) stood at 117 nM; in assay [3] (Homo sapiens, A549, A549 cells), 66500 nM.

Turning to `C=CC(=O)N1CCN(c2nc(=O)n(-c3ccccc3C(C)C)c3cc(-c4ccccc4Cl)c(Cl)cc23)[C@@H](C)C1` [Example 9-11, 6-chloro-7-(2-chlorophenyl)-4-((2S)-2-methyl-4-(2-propenoyl)-1-piperazinyl)-1-(2-(2-propanyl)phenyl)-2(1H)-quinazolinone], in assay [1], the “Coupled exchange IC50” value is 93 nM. Also, the IC50 was found to be 147 nM in assay [2] (setting [4]) and 64000 nM in assay [3] (Homo sapiens, A549, A549 cells).
